According to patent publication US20130053243A1, “PLANTS HAVING INCREASED TOLERANCE TO HERBICIDES” (BASF SE, priority 2010, published 2013):

How the values were obtained:
[1] = tested on: Chlamydomonas strain CMr05; assay: Growth inhibition of Chlamydomonas strains (tolerance); type: cell-based, Chlamydomonas reinhardtii; settings: read-out: IC50 of growth inhibition
Method: Algae cells of Chlamydomonas reinhardtii strains CC-503 and CC-1691 (Duke University, Durham, USA) are propagated in TAP medium (Gorman and Levine (1965) PNAS 54: 1665-1669) by constant shaking at 100 rpm, 22° C. and 30 μmol Phot*m^−2*[…] light illumination. Scenedesmus obliquus (University of Gottingen, Germany) are propagated in algae medium as described (Boger and Sandmann, (1993) In: Target assays for modern herbicides and related phytotoxic compounds, Lewis Publishers) under same culturing conditions as mentioned for Chlamydomonas. Compound screening is performed at 450 μmol Phot*m^−2*[…] illumination.
Sensitive strains of Chlamydomonas reinhardtii or Scenedesmus obliquus (Tables 14, 15) are mutated with 0.14 […] (EMS) for 1 h as described by Loppes (1969, Mol Gen Genet. 104: 172-177) Tolerant strains are identified by screening of mutagenized cells on solid nutrient solution plates containing “coumarone-derivative herbicides” or other HPPD inhibiting herbicides at wildype-lethal concentrations. Examples of the data obtained are depicted in Table 16 and FIG. 2.

[2] = tested on: transgenic soybean plants, event AV3639 (AtHPPD); assay: Greenhouse spray test, transgenic soybean T0 cuttings; type: in vivo, Glycine max; settings: two weeks after treatment, scale 0 (no injury) to 9 (complete death)
Method: (§1) Transgenic plants expressing heterologous HPPD or HST enzymes are tested for tolerance against coumarone-derivative herbicides in greenhouse experiments.
(§2) For post emergence treatment, the test plants are first grown to a height of 3 to 15 cm, depending on the plant habit, and only then treated with the herbicides. For this purpose, the test plants are either sown directly and grown in the same containers, or they are first grown separately and transplanted into the test containers a few days prior to treatment.
(§3) For testing of T0 plants, cuttings can be used. In the case of soybean plants, an optimal shoot for cutting is about 7.5 to 10 cm tall, with at least two nodes present. Each cutting is taken from the original transformant (mother plant) and dipped into rooting hormone powder (indole-3-butyric acid, IBA). The cutting is then placed in oasis wedges inside a bio-dome. Wild type cuttings are also taken simultaneously to serve as controls. The cuttings are kept in the bio-dome for 5-7 days and then transplanted to pots and then acclimated in the growth chamber for two more days. Subsequently, the cuttings are transferred to the greenhouse, acclimated for approximately 4 days, and then subjected to spray tests as indicated. Depending on the species, the plants are kept at 10-25° C. or 20-35° C. The test period extends over 3 weeks. During this time, the plants are tended and their response to the individual treatments is evaluated. Herbicide injury evaluations are taken at 2 and 3 weeks after treatment. Plant injury is rated on a scale of 0 to 9, 0 being no injury and 9 being complete death.

[3] = tested on: transgenic soybean plants, event AV3646 (CrHPPD1); assay: as above; type: in vivo, Glycine max; settings: two weeks after treatment, scale 0 (no injury) to 9 (complete death)
Method: as §1, §2, §3

[4] = tested on: transgenic soybean plants, event AV3641 (AtHPPD); assay: as above; type: in vivo, Glycine max; settings: two weeks after treatment, scale 0 (no injury) to 9 (complete death)
Method: as §1, §2, §3

[5] = tested on: transgenic soybean plants, event AV3653 (AtHPPD); assay: as above; type: in vivo, Glycine max; settings: two weeks after treatment, scale 0 (no injury) to 9 (complete death)
Method: as §1, §2, §3

[6] = tested on: transgenic soybean plants, event LG4564; assay: as above; type: in vivo, Glycine max; settings: event LG4564, CrHPPD2 (head unclear), two weeks after treatment, scale 0 (no injury) to 9 (complete death)
Method: as §1, §2, §3

[7] = tested on: transgenic soybean plants, event LG4628 (CrHPPD2); assay: as above; type: in vivo, Glycine max; settings: two weeks after treatment, scale 0 (no injury) to 9 (complete death)
Method: as §1, §2, §3

[8] = tested on: soybean plants, wild type (non-transformed); assay: Greenhouse spray test, soybean T0 cuttings; type: in vivo, Glycine max; settings: no transgene, two weeks after treatment, scale 0 (no injury) to 9 (complete death)
Method: as §1, §2, §3

CC1=NOC(c2c(Cl)ccc(C3=C(O)c4ncccc4N(CC(F)F)S3(=O)=O)c2Cl)C1 (stereo not shown) [Inhibitor 1, 3-[2,4-dichloro-3-(3-methyl-4,5-dihydroisoxazol-5-yl)phenyl]-1-(2,2-difluoroethyl)-2,2-dioxo-pyrido[3,2-c]thiazin-4-ol]
IC50 [1]: > 1000 µM | Injury evaluation (plant injury rating) ([2]; 50 g/ha): 3 | Injury evaluation (plant injury rating) ([2]; 100 g/ha): 2 | Injury evaluation (plant injury rating) ([2]; 200 g/ha): 3 | Injury evaluation (plant injury rating) ([3]; 50 g/ha): 3 | Injury evaluation (plant injury rating) ([3]; 100 g/ha): 4 | Injury evaluation (plant injury rating) ([3]; 200 g/ha): 4 | Injury evaluation (plant injury rating) ([4]; 50 g/ha): 2 | Injury evaluation (plant injury rating) ([4]; 100 g/ha): 2 | Injury evaluation (plant injury rating) ([4]; 200 g/ha): 3 | Injury evaluation (plant injury rating) ([5]; 50 g/ha): 3 | Injury evaluation (plant injury rating) ([5]; 100 g/ha): 3 | Injury evaluation (plant injury rating) ([5]; 200 g/ha): 3 | Injury evaluation (plant injury rating) ([6]; 50 g/ha): 3 | Injury evaluation (plant injury rating) ([6]; 100 g/ha): 3 | Injury evaluation (plant injury rating) ([6]; 200 g/ha): 4 | Injury evaluation (plant injury rating) ([7]; 50 g/ha): 4 | Injury evaluation (plant injury rating) ([7]; 100 g/ha): 3 | Injury evaluation (plant injury rating) ([7]; 200 g/ha): 4 | Injury evaluation (plant injury rating) ([8]; 50 g/ha): 4.5 | Injury evaluation (plant injury rating) ([8]; 100 g/ha): 5.5 | Injury evaluation (plant injury rating) ([8]; 200 g/ha): 6

Cc1c(C(=O)c2cnn(C)c2O)ccc(S(C)(=O)=O)c1C1=NOCC1 [Topramezone, reference compound]
IC50 [1]: 710 µM | Injury evaluation (plant injury rating) ([2]; 6.25 g/ha): 4 | Injury evaluation (plant injury rating) ([2]; 12.5 g/ha): 5 | Injury evaluation (plant injury rating) ([3]; 6.25 g/ha): 6 | Injury evaluation (plant injury rating) ([3]; 12.5 g/ha): 7 | Injury evaluation (plant injury rating) ([4]; 6.25 g/ha): 4 | Injury evaluation (plant injury rating) ([4]; 12.5 g/ha): 4 | Injury evaluation (plant injury rating) ([5]; 6.25 g/ha): 2 | Injury evaluation (plant injury rating) ([5]; 12.5 g/ha): 3 | Injury evaluation (plant injury rating) ([6]; 6.25 g/ha): 3 | Injury evaluation (plant injury rating) ([6]; 12.5 g/ha): 4 | Injury evaluation (plant injury rating) ([7]; 6.25 g/ha): 5 | Injury evaluation (plant injury rating) ([7]; 12.5 g/ha): 6 | Injury evaluation (plant injury rating) ([8]; 6.25 g/ha): 7 | Injury evaluation (plant injury rating) ([8]; 12.5 g/ha): 7
